Converted amounts (≈) assume the structure as drawn. The source made the active and inactive calls. The calls are words filed in the database; no cut-off is given here.
Tests used:
[1] = tested on: Cladosporium cucumerinum; test: Antifungal activity against Cladosporium cucumerinum at 0.10 umol after 2 days; assay type: functional
[2] = tested on: Cladosporium cucumerinum; test: Antifungal activity against Cladosporium cucumerinum at 0.80 umol after 2 days; assay type: functional
[3] = Toxicity against Artemia salina assessed as mortality after 48 hrs; assay type: organism-based; conditions: in vivo
[4] = tested on: Escherichia coli; test: Antibacterial activity against Escherichia coli ATCC 25922 at 100 ug/disk after 24 hrs by agar plate diffusion method; assay type: functional, organism-based
[5] = tested on: Spodoptera littoralis; test: Insecticidal activity against Spodoptera littoralis larvae assessed as inhibition of larval growth at 530 ppm treated in artificial diet after 6 days; assay type: functional; set-up: scale not given: the % may be the effect or the level left
[6] = tested on: Salmonella typhi; test: Antibacterial activity against Salmonella typhii at 100 ug/disk after 24 hrs by agar plate diffusion method; assay type: functional, Salmonella enterica subsp. enterica serovar Typhi
[7] = tested on: Spodoptera littoralis; test: Insecticidal activity against Spodoptera littoralis larvae assessed as inhibition of larval growth treated in artificial diet after 6 days; assay type: functional, organism-based
[8] = tested on: Staphylococcus aureus; test: Antibacterial activity against Staphylococcus aureus ATCC 25923 at 100 ug/disk after 24 hrs by agar plate diffusion method; assay type: functional, organism-based
[9] = tested on: Micrococcus luteus; test: Antibacterial activity against Micrococcus luteus at 100 ug/disk after 24 hrs by agar plate diffusion method; assay type: functional
[10] = tested on: Bacillus subtilis; test: Antibacterial activity against Bacillus subtilis 168 at 100 ug/disk after 24 hrs by agar plate diffusion method; assay type: functional, organism-based; conditions: subsp. subtilis str. 168

| SMILES | Activity [1] | Activity [2] | LC50 at 48 h [3] | Activity [4] | Activity [5] | inhibition zone (IZ) [1] | inhibition zone (IZ) [2] | zone of inhibition at 100 µg/disc ([6]; Salmonella enterica, read-out: IZ) | EC50 [7] | Activity [8] | Activity [9] | Activity [10] | Activity ([6]; Salmonella enterica subsp. enterica serovar Typhi) | zone of inhibition at 100 µg/disc ([9]; read-out: IZ) |
| --- | --- | --- | --- | --- | --- | --- | --- | --- | --- | --- | --- | --- | --- | --- |
| C[C@]12CC[C@H]3[C@@](C)(CCC[C@@]3(C)C(=O)O)[C@@H]1CC[C@@]1(C)Oc3c(O)ccc(Oc4ccc5c(c4)C[C@H]4[C@]6(C)CC[C@@H]7[C@](C)(CCC[C@]7(C)C(=O)O)[C@H]6CC[C@]4(C)O5)c3C[C@H]21 [DISTRONGYLOPHORINE] | inactive | inactive | 10.5 µg/mL (≈ 12.8 µM) | – | – | – | – | – | – | – | – | – | – | – |
| C[C@]12CCC[C@](C)(C(=O)O)[C@@H]1CC[C@]1(C)[C@@H]2CC[C@]2(C)Oc3ccc(O)cc3C[C@@H]12 [Strongylophorin-3] | – | – | 59.2 µg/mL (≈ 143 µM) | inactive | 90% | 10 mm | 15 mm | 9 mm | 69 ppm | inactive | inactive | inactive | – | – |
| C[C@@]12CC[C@@H]3[C@]4(CCC[C@@]3(C)C(=O)OC4)[C@H]1CC[C@]1(C)Oc3ccc(O)cc3C[C@@H]21 [strongylophorine-2] | inactive | inactive | 534 µg/mL (≈ 1300 µM) | inactive | – | – | – | – | – | inactive | – | inactive | inactive | 7 mm |
| CC(=O)[C@@]1(C)CCC[C@]2(C)[C@H]3CC[C@]4(C)Oc5ccc(O)cc5C[C@H]4[C@]3(C)CC[C@H]21 [strongylophorine-4] | inactive | inactive | 143 µg/mL (≈ 349 µM) | – | – | – | – | – | – | – | – | – | – | – |

Source: ChEMBL document CHEMBL1150926, “A new meroditerpenoid dimer from an undescribed Philippine marine sponge of the genus Strongylophora” (J Nat Prod, 1998)
